Measurements as given in ChEMBL document CHEMBL5528010, “The discovery of aryl-2-nitroethyl triamino pyrimidines as anti-Trypanosoma brucei agents” (Eur J Med Chem, 2024).
Activity calls are given as the source filed them. The rule behind the calls is not given here.

Legend:
[1] = Inhibition of N-terminal his 6 tagged recombinant Trypanosoma brucei PTR1 expressed in Escherichia coli BL21 (DE3) cells preincubated for 10 mins followed by NADPH addition and measured after 10 to 50 mins by multilabel plate reader method; type: cell-based
Pteridine reductase 1 = biological target: T1, Pteridine reductase 1 (Leishmania major, UniProt Q01782); experiment: Inhibition of N-terminal his 6 tagged recombinant Leishmania major PTR1 expressed in Escherichia coli BL21 (DE3) cells preincubated for 10 mins followed by NADPH addition and measured after 10 to 50 mins by multilabel plate reader method
T1 sequence (Q01782 whole entry): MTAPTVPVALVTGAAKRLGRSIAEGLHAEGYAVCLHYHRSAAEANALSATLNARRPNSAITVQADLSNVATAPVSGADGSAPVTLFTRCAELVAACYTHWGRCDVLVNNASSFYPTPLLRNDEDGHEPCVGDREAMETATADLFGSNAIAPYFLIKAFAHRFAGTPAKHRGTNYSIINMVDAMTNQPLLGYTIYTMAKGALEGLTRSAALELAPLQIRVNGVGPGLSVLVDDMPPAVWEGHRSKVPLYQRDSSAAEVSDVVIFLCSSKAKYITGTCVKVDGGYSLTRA

Trypanosoma brucei [2] = experiment: Antiparasitic activity against blood stream form Trypanosoma brucei assessed as parasitic growth inhibition incubated for 72 hrs by resazurin dye based fluorescence analysis; type: functional, organism-based
THP-1 = experiment: Cytotoxicity against human THP-1 cells assessed as reduction in cell viability measured after 72 hrs by MTT assay; type: functional
[3] = Selectivity index, ratio of CC50 for human THP-1 cells to EC50 for bloodstream form Trypanosoma brucei; type: toxicity; conditions: read-out: Ratio CC50/EC50
Leishmania infantum = experiment: Antiparasitic activity against Leishmania infantum intracellular amastigotes MHOM/BR/1972/BH46 infected in human THP-1 cells assessed as inhibition of parasitic growth at 50 uM pre-infected for 24 hrs followed by compound addition and measured after 48 hrs relative to control; type: functional; conditions: MHOM/BR/1972/BH46, THP-1
[4] = biological target: Voltage-gated inwardly rectifying potassium channel KCNH2 (Homo sapiens, UniProt Q12809); experiment: Inhibition of human ERG incubated for 2 hrs by fluorescence polarization assay; type: toxicity
Chain of Voltage-gated inwardly rectifying potassium channel KCNH2 (Q12809 whole entry): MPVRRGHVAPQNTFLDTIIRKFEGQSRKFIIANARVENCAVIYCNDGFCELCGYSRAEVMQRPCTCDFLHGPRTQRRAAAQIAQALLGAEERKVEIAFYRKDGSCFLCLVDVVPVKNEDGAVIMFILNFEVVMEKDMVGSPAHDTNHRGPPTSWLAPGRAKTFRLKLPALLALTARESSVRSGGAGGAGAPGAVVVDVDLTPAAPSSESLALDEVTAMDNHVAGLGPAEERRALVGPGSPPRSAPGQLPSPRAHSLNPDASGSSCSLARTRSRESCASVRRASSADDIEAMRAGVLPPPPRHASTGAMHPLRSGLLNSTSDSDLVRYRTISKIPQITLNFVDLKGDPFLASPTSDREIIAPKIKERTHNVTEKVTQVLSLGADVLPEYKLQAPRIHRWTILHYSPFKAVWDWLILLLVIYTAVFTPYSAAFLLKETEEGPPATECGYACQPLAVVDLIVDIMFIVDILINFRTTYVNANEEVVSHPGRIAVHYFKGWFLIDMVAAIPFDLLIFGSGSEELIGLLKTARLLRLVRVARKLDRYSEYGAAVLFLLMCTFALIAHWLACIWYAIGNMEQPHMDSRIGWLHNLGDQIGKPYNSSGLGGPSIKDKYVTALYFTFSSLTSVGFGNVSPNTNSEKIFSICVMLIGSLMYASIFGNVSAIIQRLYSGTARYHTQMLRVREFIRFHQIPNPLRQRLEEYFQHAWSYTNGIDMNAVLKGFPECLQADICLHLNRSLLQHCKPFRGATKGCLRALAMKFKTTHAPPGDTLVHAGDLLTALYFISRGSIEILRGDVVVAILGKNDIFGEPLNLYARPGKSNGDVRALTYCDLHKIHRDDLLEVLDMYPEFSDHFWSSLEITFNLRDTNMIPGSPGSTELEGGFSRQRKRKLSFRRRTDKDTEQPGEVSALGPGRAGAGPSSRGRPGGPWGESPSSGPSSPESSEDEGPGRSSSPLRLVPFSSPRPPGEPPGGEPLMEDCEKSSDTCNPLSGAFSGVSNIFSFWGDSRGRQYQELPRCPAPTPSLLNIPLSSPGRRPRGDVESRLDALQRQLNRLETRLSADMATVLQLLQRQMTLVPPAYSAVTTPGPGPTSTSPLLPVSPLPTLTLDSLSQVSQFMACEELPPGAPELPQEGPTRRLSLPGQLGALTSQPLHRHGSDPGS

Cytochrome P450 2C9 = Cytochrome P450 2C9 (Homo sapiens, UniProt P11712); experiment: Inhibition of CYP2C9 (unknown origin) expressed in baculovirus infected insect cells using luciferin as substrate preincubated for 30 mins followed by NADPH addition and measured after 30 mins by luminescence based analysis; type: ADME, Insect cell
Chain of Cytochrome P450 2C9 (P11712 whole entry): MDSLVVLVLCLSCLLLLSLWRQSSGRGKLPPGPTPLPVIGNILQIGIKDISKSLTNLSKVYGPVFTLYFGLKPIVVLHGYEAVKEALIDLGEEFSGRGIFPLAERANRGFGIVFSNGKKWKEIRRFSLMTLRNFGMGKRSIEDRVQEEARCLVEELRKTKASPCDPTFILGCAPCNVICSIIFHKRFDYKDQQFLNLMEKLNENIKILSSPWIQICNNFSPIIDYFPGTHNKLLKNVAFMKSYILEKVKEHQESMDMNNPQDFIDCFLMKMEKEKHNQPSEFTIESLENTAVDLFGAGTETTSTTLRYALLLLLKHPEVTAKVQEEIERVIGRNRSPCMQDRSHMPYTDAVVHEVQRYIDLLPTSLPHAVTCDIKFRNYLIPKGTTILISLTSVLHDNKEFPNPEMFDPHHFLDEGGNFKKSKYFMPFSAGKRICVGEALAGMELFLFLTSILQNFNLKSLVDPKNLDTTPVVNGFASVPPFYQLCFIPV

Cytochrome P450 1A2 = biological target: T2, Cytochrome P450 1A2 (Homo sapiens, UniProt P05177); experiment: Inhibition of CYP1A2 (unknown origin) expressed in baculovirus infected insect cells using luciferin as substrate preincubated for 30 mins followed by NADPH addition and measured after 30 mins by luminescence based analysis; type: ADME, Insect cell
T2 sequence (P05177 whole entry): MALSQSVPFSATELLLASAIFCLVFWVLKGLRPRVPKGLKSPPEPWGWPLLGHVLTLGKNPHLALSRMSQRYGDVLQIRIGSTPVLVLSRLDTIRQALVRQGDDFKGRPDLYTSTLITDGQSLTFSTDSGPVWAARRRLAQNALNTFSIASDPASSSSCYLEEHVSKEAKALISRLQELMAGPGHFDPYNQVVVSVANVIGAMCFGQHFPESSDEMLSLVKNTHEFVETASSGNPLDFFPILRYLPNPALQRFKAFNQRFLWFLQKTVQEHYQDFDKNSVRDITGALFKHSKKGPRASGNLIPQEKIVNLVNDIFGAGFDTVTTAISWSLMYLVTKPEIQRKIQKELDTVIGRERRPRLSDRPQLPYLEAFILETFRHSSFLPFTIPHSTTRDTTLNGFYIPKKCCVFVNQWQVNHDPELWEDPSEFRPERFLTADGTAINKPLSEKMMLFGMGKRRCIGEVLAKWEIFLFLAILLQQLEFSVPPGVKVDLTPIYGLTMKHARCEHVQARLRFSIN

Cytochrome P450 2C19 = Cytochrome P450 2C19 (Homo sapiens, UniProt P33261); experiment: Inhibition of CYP2C19 (unknown origin) expressed in baculovirus infected insect cells using luciferin as substrate preincubated for 30 mins followed by NADPH addition and measured after 30 mins by luminescence based analysis; type: ADME, Insect cell
Chain of Cytochrome P450 2C19 (P33261 whole entry): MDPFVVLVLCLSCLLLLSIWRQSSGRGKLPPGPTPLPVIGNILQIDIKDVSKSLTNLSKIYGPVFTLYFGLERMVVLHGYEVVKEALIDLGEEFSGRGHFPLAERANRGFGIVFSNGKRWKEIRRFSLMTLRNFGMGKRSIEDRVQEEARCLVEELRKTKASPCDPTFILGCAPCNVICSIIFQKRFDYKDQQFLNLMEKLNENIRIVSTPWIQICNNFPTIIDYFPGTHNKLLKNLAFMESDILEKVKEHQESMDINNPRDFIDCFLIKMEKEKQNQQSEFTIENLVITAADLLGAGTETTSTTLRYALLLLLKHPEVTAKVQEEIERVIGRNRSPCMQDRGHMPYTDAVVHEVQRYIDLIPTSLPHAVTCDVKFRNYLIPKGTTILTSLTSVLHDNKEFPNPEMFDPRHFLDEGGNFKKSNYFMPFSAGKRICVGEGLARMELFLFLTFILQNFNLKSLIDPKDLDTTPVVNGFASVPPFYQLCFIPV

Cytochrome P450 2D6 = Cytochrome P450 2D6 (Homo sapiens, UniProt P10635); experiment: Inhibition of CYP2D6 (unknown origin) expressed in baculovirus infected insect cells using luciferin as substrate preincubated for 30 mins followed by NADPH addition and measured after 30 mins by luminescence based analysis; type: ADME, Insect cell
Chain of Cytochrome P450 2D6 (P10635 whole entry): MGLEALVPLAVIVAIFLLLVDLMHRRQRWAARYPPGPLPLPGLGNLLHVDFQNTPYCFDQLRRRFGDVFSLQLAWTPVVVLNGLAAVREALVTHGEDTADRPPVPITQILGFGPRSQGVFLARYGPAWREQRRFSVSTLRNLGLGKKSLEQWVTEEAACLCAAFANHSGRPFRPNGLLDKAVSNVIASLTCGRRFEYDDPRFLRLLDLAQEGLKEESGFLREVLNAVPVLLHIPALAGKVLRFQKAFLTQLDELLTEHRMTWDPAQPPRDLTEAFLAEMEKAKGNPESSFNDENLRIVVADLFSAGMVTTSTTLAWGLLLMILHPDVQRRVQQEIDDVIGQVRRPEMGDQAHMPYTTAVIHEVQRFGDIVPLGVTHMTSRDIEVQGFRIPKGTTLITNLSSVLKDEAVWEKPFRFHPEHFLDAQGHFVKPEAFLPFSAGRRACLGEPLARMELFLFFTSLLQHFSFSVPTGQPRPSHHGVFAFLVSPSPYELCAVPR

Cytochrome P450 3A4 = Cytochrome P450 3A4 (Homo sapiens, UniProt P08684); experiment: Inhibition of CYP3A4 (unknown origin) expressed in baculovirus infected insect cells using luciferin as substrate preincubated for 30 mins followed by NADPH addition and measured after 30 mins by luminescence based analysis; type: ADME, Insect cell
Chain of Cytochrome P450 3A4 (P08684 whole entry): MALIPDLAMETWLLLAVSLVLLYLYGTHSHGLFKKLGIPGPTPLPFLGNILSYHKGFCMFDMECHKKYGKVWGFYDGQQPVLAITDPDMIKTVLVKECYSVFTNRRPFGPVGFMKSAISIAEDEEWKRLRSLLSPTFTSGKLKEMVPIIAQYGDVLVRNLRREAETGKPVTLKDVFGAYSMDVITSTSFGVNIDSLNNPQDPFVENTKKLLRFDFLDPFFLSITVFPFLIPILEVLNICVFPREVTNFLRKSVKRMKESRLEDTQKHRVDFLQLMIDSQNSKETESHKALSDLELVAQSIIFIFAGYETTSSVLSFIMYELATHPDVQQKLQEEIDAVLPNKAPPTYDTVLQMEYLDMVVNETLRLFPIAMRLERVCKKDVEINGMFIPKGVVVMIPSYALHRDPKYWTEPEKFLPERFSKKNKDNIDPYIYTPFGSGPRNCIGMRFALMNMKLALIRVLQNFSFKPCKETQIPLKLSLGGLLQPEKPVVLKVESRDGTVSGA

hERG = experiment: Selectivity index, ratio of IC50 for human ERG to EC50 for blood stream form Trypanosoma brucei; type: toxicity; conditions: read-out: Ratio IC50/EC50
CYP1A2 = experiment: Selectivity index, ratio of IC50 for CYP1A2 (unknown origin) to EC50 for blood stream form Trypanosoma brucei; type: toxicity; conditions: read-out: Ratio IC50/EC50
CYP2C9 = experiment: Selectivity index, ratio of IC50 for CYP2C9 (unknown origin) to EC50 for blood stream form Trypanosoma brucei; type: toxicity; conditions: read-out: Ratio IC50/EC50
CYP2C19 = experiment: Selectivity index, ratio of IC50 for CYP2C19 (unknown origin) to EC50 for blood stream form Trypanosoma brucei; type: toxicity; conditions: read-out: Ratio IC50/EC50
CYP2D6 = experiment: Selectivity index, ratio of IC50 for CYP2D6 (unknown origin) to EC50 for blood stream form Trypanosoma brucei; type: toxicity; conditions: read-out: Ratio IC50/EC50
CYP3A4 = experiment: Selectivity index, ratio of IC50 for CYP3A4 (unknown origin) to EC50 for blood stream form Trypanosoma brucei; type: toxicity; conditions: read-out: Ratio IC50/EC50
[5] = Growth inhibition of human A549 cells measured after 48 hrs by celltiter-glo assay; type: toxicity, cell-based
[6] = Mitochondrial toxicity in human A549 cells; type: cell-based
[7] = Selectivity index, ratio of GI50 for human A549 cells to EC50 for blood stream form Trypanosoma brucei; type: toxicity; conditions: read-out: Ratio GI50/EC50
[8] = Selectivity index, ratio of IC50 for human A549 cells to EC50 for blood stream form Trypanosoma brucei; type: toxicity; conditions: read-out: Ratio IC50/EC50
[9] = Cmax in BALB/c mouse at 20 mg/kg, po measured upto 24 hrs by LC-MS/MS analysis; type: ADME, organism-based; conditions: in vivo
[10] = Tmax in BALB/c mouse at 20 mg/kg, po measured upto 24 hrs by LC-MS/MS analysis; type: ADME, organism-based; conditions: in vivo
[11] = AUC last in BALB/c mouse at 20 mg/kg, po measured upto 24 hrs by LC-MS/MS analysis; type: ADME, organism-based; conditions: in vivo
[12] = Half life in BALB/c mouse at 20 mg/kg, po measured upto 24 hrs by LC-MS/MS analysis; type: ADME, organism-based; conditions: in vivo
Trypanosoma brucei [13] = experiment: Anti-parasitic activity against Trypanosoma brucei infected in BALB/c mouse model assessed as reduction of parasitemia at 5 mg/kg/day, ip relative to control; type: functional; design: scale not given: the % may be the effect or the level left
Trypanosoma brucei [14] = experiment: Anti-parasitic activity against Trypanosoma brucei infected in BALB/c mouse model assessed as reduction of parasitemia at 20 mg/kg administered daily; type: functional, organism-based

Row | IC50 (Pteridine reductase 1) [µM] | EC50 (Trypanosoma brucei [2]) [µM] | IC50 (Cytochrome P450 2C9) [µM] | IC50 (Cytochrome P450 1A2) [µM] | IC50 (Cytochrome P450 2C19) [µM] | IC50 (Cytochrome P450 2D6) [µM] | IC50 (Cytochrome P450 3A4) [µM] | Compound | IC50 [1] [µM] | CC50 (THP-1) [µM] | selectivity ratio [3] | inhibition at 50 µM (Leishmania infantum) [%] | IC50 [4] [µM] | selectivity ratio (hERG) | selectivity ratio (CYP1A2) | selectivity ratio (CYP2C9) | selectivity ratio (CYP2C19) | selectivity ratio (CYP2D6) | selectivity ratio (CYP3A4) | GI50 at 48 h [5] [µM] | IC50 [6] [µM] | further results
1 | 46 | 0.3 | 3.2 | 1.2 | 8 | 5.9 | 5.9 | Nc1nc(N)c(C(C[N+](=O)[O-])c2ccccc2OCc2ccc(Cl)c(Cl)c2)c(N)n1 (stereo unspecified) | 0.27 | 25 | 83 | 11.7 | > 100 | > 300 | 4 | 11 | 26 | 20 | 20 | 10 | 3.9 | selectivity ratio [7]: 33; selectivity ratio [8]: 13; Cmax [9]: 373 ng/mL; Tmax [10]: 0.5 h; AUC(0-t) at 24 h [11]: 1180 ng·h/mL; half-life [12]: 3 h
2 | 87.1 | 0.004 |  |  |  |  |  | N=C(N)c1ccc(OCCCCCOc2ccc(C(=N)N)cc2)cc1 [PENTAMIDINE] |  |  |  |  |  |  |  |  |  |  |  |  |  | Activity (Trypanosoma brucei [13]): 100%
3 | 47.4 | 0.09 | 24.4 | 3 | 15.3 | 10.2 | > 100 | Nc1nc(N)c(C(C[N+](=O)[O-])c2csc3ccccc23)c(N)n1 (stereo unspecified) | 0.3 | 12.5 | 139 | 49 | 16 | 178 | 33 | 271 | 170 | 113 | > 1100 | 10.6 | 10.4 | selectivity ratio [7]: 117; selectivity ratio [8]: 115; Cmax [9]: 828 ng/mL; Tmax [10]: 1 h; AUC(0-t) at 24 h [11]: 5290 ng·h/mL; half-life [12]: 2.1 h; Activity (Trypanosoma brucei [14]): inactive
